Like-named read-outs stand apart in the source and are kept apart here.
Columns and labels:
Experiment in all cases: KINOMEscan competitive binding
RIPK2 = biological target: T1, RIPK2 (Homo sapiens, UniProt O43353); conditions: n=1, read-out: Percent inhibition, RIPK2
T1 construct: purchased DiscoverX (KINOMEscan)

FLT1 = biological target: T2, FLT1 (Homo sapiens, UniProt P17948); conditions: for inhibition at 10 µM: n=1, kinase FLT1, read-out: Percent inhibition FLT1
T2 construct: purchased DiscoverX (KINOMEscan)
In short: (§1)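 Kinases were expressed as T7 bacteriophage fusions, and test compounds competed with immobilized ATP-site probe ligands for binding. Kinase remaining bound to the solid-support probe was quantified, and values are given as percentage inhibition.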

EGFR = biological target: T3, EGFR (Homo sapiens, UniProt P00533)
T3 construct: purchased DiscoverX (KINOMEscan)
T3 sequence (P00533 25-1210): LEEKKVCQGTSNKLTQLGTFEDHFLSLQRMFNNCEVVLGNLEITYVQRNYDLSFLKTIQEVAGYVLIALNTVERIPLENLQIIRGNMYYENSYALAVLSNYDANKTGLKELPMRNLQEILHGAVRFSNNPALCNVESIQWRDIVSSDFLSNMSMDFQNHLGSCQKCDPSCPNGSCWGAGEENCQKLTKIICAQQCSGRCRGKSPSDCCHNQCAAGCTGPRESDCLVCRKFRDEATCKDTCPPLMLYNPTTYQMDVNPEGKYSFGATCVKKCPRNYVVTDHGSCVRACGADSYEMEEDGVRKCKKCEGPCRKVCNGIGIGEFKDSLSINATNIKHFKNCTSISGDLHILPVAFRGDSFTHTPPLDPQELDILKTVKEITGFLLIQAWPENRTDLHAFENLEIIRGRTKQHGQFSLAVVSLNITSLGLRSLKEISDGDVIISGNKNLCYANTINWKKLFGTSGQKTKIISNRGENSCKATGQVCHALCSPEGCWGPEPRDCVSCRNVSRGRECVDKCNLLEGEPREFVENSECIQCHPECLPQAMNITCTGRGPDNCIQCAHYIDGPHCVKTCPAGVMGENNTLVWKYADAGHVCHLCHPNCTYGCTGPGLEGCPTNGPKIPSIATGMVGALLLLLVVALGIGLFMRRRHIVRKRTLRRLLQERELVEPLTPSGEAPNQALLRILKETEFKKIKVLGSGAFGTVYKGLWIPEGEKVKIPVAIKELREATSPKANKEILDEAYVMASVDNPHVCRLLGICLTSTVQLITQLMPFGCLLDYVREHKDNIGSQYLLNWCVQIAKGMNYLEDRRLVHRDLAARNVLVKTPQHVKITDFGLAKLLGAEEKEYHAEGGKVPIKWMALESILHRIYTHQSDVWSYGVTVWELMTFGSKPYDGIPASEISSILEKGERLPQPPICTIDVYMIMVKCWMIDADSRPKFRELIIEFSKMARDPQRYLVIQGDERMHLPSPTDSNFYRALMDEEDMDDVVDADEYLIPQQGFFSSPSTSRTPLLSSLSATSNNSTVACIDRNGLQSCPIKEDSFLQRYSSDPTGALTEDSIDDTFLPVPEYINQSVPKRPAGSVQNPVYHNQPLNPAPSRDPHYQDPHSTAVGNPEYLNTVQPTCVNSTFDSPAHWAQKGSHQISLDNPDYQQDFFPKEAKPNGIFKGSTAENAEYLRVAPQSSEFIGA
In short: as §1

CSNK1D = biological target: T4, CSNK1D (Homo sapiens, UniProt P48730)
T4 construct: purchased DiscoverX (KINOMEscan)
T4 sequence (P48730 whole entry): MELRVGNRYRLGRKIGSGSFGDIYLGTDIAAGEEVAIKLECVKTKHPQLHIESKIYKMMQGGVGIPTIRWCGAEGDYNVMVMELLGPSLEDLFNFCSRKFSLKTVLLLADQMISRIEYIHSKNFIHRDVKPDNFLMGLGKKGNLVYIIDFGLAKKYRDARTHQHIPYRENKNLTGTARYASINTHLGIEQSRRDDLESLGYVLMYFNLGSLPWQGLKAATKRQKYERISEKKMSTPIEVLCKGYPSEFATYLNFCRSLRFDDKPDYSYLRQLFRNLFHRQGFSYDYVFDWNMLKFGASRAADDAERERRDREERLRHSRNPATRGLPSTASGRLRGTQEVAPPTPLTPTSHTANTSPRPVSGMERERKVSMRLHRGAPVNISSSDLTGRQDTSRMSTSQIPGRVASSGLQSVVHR
In short: as §1

BIKE = biological target: T5, BIKE (Homo sapiens, UniProt Q9NSY1)
T5 construct: purchased DiscoverX (KINOMEscan)
T5 sequence (Q9NSY1 whole entry): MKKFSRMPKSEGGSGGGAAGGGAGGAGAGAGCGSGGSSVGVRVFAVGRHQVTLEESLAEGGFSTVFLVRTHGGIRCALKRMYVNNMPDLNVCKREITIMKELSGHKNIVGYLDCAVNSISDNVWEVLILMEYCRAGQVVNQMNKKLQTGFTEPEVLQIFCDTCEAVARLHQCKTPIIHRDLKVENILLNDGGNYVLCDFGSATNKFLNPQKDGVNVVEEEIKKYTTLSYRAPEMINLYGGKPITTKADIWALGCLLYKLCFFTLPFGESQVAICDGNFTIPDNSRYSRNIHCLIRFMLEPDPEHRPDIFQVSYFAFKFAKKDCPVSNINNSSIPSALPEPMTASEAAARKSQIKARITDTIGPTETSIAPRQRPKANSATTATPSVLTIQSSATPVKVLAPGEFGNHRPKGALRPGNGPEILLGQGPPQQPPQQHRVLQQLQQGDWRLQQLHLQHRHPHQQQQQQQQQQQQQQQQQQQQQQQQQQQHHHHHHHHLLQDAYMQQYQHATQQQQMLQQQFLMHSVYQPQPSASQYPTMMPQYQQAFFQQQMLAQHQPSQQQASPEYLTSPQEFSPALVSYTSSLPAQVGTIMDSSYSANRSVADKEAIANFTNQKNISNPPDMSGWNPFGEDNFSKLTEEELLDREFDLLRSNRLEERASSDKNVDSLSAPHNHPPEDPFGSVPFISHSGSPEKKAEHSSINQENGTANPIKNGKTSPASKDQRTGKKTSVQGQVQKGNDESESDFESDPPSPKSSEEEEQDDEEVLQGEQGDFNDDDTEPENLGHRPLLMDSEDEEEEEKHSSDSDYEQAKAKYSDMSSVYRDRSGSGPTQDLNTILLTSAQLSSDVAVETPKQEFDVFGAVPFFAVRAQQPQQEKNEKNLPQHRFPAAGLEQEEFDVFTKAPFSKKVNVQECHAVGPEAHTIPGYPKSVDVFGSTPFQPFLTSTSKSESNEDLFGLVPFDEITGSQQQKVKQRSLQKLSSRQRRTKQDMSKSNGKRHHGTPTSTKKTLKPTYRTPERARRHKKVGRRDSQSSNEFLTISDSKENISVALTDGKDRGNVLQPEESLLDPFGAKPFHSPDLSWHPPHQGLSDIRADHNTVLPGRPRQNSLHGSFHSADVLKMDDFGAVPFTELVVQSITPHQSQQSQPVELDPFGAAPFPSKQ
In short: as §1

CDK5 = biological target: T6, CDK5 (Homo sapiens, UniProt Q00535)
T6 construct: purchased DiscoverX (KINOMEscan)
T6 sequence (Q00535 whole entry): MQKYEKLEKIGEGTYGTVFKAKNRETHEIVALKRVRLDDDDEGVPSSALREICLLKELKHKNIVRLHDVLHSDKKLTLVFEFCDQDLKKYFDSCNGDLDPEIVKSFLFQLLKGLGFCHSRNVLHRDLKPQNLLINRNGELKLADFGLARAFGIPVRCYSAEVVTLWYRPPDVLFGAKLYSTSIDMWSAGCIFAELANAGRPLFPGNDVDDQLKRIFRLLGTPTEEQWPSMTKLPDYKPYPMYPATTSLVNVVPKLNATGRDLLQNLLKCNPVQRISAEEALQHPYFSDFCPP
In short: as §1

PHKG1 = biological target: T7, PHKG1 (Homo sapiens, UniProt Q16816); conditions: n=1, read-out: Percent inhibition, PHKG1
T7 construct: purchased DiscoverX (KINOMEscan)
T7 sequence (Q16816 whole entry): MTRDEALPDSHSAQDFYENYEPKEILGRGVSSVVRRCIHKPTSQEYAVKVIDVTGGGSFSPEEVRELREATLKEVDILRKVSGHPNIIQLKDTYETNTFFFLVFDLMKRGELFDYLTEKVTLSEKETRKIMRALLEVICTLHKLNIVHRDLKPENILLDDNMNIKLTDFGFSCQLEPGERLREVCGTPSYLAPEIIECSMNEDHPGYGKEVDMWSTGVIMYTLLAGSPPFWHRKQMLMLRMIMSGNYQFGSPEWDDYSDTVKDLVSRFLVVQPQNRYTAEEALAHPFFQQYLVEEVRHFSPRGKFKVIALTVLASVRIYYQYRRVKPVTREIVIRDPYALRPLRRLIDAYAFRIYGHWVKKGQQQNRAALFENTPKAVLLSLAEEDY

TNK2 = biological target: T8, TNK2 (Homo sapiens, UniProt Q07912); conditions: n=1, read-out: Percent inhibition, TNK2
T8 construct: purchased DiscoverX (KINOMEscan)
T8 sequence (Q07912 whole entry): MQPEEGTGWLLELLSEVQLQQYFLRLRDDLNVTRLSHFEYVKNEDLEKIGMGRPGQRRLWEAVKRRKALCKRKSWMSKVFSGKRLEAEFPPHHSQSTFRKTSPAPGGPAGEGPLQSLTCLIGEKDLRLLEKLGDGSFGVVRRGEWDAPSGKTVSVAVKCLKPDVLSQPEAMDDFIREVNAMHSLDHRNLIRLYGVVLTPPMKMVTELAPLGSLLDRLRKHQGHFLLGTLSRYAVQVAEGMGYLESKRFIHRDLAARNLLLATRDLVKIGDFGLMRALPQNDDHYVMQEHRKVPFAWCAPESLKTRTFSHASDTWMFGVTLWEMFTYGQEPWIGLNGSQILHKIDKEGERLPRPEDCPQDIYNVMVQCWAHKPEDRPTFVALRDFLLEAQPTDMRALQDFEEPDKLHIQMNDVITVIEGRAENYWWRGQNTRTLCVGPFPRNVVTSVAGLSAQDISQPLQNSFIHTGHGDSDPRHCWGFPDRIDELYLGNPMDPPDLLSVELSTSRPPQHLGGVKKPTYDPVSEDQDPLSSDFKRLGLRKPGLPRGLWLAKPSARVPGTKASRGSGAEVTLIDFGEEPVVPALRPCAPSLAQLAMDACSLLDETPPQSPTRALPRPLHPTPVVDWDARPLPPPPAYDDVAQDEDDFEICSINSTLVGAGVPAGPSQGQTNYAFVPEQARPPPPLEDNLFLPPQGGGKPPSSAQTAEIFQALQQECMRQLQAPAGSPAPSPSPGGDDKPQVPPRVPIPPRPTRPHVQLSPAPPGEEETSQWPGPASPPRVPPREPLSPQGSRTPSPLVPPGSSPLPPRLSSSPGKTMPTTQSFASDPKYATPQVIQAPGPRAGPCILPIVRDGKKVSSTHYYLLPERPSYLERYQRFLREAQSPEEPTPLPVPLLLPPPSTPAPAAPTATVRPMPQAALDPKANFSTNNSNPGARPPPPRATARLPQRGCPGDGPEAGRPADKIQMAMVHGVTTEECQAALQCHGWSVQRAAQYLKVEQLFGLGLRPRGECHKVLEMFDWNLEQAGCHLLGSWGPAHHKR

RPS6KA5(Kin.Dom.1) = biological target: T9, RPS6KA5(Kin.Dom.1) (Homo sapiens, UniProt O75582); conditions: n=1, read-out: Percent inhibition, RPS6KA5(Kin.Dom.1)
T9 construct: RPS6KA5(Kin.Dom.1); purchased DiscoverX (KINOMEscan)

JAK kinase domains = biological target: T10, JAK kinase domains (Homo sapiens, UniProt O60674); conditions: 10 µM, n=1; kinase JAK2(Kin.Dom.2); read-out: Percent inhibition JAK2(Kin.Dom.2)
T10 construct: purchased DiscoverX (KINOMEscan)
Source text: The kinases were expressed as fusions to T7 bacteriophage. This is a sensitive, competitive binding assay where test compounds were used to displace immobilized ATP-site binding probe ligands from kinases of interest. The amount of kinase that remained bound to the immobilized probe ligands on the solid support was quantified. Percentage inhibition data were was plotted on kinome trees using the web-based tool KinMap (http://www.kinhub.org/kinmap) ([60]).

STK36 = biological target: T11, STK36 (Homo sapiens, UniProt Q9NRP7); conditions: n=1, read-out: Percent inhibition, STK36
T11 construct: purchased DiscoverX (KINOMEscan)
T11 sequence (Q9NRP7 1-1315): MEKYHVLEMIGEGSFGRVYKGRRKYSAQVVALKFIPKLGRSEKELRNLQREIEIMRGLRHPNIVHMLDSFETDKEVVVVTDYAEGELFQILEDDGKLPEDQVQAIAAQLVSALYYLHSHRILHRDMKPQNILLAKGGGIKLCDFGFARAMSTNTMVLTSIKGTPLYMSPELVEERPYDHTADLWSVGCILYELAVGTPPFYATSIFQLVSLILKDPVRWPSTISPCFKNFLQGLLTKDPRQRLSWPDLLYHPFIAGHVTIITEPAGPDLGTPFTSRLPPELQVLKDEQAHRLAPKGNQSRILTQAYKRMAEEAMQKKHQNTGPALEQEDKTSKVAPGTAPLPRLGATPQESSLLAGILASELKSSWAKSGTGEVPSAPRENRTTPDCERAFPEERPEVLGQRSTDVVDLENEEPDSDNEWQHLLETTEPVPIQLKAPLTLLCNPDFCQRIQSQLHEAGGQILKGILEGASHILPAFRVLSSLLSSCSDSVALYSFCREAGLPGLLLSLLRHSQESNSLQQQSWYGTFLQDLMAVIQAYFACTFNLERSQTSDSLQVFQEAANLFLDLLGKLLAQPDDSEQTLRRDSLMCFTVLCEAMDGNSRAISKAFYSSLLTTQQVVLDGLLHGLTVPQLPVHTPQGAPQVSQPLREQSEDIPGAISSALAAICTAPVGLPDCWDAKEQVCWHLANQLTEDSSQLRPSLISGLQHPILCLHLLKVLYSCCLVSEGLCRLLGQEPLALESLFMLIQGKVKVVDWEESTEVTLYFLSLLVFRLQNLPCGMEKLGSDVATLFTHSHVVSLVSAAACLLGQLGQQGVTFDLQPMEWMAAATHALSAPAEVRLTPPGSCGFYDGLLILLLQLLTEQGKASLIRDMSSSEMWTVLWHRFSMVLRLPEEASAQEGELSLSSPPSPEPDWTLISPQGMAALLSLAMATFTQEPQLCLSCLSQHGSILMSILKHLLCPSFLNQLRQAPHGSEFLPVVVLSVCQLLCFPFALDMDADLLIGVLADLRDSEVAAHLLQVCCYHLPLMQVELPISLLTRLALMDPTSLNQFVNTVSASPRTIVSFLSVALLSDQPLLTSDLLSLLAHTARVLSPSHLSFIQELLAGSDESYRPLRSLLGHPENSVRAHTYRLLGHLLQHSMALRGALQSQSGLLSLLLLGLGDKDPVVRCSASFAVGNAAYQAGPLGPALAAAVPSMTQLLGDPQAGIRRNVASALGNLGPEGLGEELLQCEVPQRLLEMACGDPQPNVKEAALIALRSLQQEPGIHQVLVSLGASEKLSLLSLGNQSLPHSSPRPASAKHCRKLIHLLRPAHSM

ULK3(mouse) = biological target: T12, ULK3(mouse) (Mus musculus, UniProt Q3U3Q1); conditions: n=1, read-out: Percent inhibition, ULK3(mouse)
T12 construct: purchased DiscoverX (KINOMEscan)
T12 sequence (Q3U3Q1 1-472): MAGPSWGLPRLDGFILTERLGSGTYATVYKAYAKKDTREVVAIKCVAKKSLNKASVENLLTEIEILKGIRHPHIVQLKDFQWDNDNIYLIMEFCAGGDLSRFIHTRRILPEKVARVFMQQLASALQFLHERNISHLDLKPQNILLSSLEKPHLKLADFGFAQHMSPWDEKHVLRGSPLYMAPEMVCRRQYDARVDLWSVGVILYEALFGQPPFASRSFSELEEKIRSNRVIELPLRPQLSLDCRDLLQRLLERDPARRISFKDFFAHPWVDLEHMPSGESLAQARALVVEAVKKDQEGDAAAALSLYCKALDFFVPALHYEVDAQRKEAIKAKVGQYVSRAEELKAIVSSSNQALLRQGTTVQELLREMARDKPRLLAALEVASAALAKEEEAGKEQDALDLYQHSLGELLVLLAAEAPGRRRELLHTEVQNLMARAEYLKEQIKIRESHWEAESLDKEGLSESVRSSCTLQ

[1] = 10 µM, n=1, kinase EGFR, read-out: Percent inhibition EGFR
[2] = 10 µM, n=1, kinase CSNK1D, read-out: Percent inhibition CSNK1D
[3] = 10 µM, n=1, kinase BIKE, read-out: Percent inhibition BIKE
[4] = 10 μM, n = 1, read-out: percent inhibition CDK5
[5] = 10 µM, n=1, kinase CDK5, read-out: Percent inhibition CDK5

T1 sequence (O43353 whole entry): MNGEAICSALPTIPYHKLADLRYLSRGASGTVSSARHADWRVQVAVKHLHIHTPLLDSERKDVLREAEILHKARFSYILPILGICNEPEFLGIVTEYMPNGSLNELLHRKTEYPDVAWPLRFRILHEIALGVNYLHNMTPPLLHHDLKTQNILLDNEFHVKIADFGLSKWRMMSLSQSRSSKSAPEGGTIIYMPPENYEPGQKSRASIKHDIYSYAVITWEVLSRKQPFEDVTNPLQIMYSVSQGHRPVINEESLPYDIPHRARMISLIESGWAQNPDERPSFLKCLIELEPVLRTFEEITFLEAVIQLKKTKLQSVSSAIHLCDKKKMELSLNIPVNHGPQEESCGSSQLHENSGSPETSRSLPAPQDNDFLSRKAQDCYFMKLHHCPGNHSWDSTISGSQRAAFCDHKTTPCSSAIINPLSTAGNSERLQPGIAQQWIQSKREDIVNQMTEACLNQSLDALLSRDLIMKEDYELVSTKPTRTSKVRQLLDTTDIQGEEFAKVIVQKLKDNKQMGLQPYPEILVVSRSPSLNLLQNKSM

Compound	inhibition at 10 µM (RIPK2)	inhibition at 10 µM (FLT1)	inhibition at 10 µM (EGFR; [1])	inhibition at 10 µM (CSNK1D; [2])	inhibition at 10 µM (BIKE; [3])	inhibition at 10 µM (CDK5; [4])	inhibition at 10 µM (CDK5; [5])	inhibition at 10 µM (PHKG1)	inhibition at 10 µM (TNK2)	inhibition at 10 µM (RPS6KA5(Kin.Dom.1))	inhibition at 10 µM (JAK kinase domains)	inhibition at 10 µM (STK36)	inhibition at 10 µM (ULK3(mouse))	inhibition at 10 µM (EGFR; 10 μM, n = 1, read-out: percent inhibition EGFR)	inhibition at 10 µM (BIKE; 10 μM, n = 1, read-out: percent inhibition BIKE)	inhibition of FLT1, in words (FLT1; kinome profiling, 10 μM)	inhibition at 10 µM (CSNK1D; 10 μM, n = 1, read-out: percent inhibition CSNK1D)
CN1CCN(c2ccc(Nc3nccc(-c4cnn5ncccc45)n3)cc2C#N)CC1 [Compound 1]	90.6%	99.9%	0%	100%	99.1%	> 99%	99.5%	88.3%	73.2%	65.7%	86.8%	100%	97.1%				
COc1ccc(Nc2nccc(-c3cnn4ncccc34)n2)cc1 [Compound 2]	0%	99.5%	0%	100%	96.5%	> 99%	99.8%	0%	78.1%	0%	89.7%	98.8%	92.5%				
Cc1ccc(O)cc1Nc1ccnc(Nc2cccc(C(N)=O)c2)n1 [Compound 3]	100%	98.3%	99%	100%	0%		0%	0%	98.8%	0%	80.6%	98.4%	91.5%				
Cc1ccc(O)cc1N(C)c1ccnc(Nc2cccc(S(N)(=O)=O)c2)n1 [Compound 4]	100%	99.4%	95.8%	100%	0%		0%	0%	99.8%	0%	90.7%	99.3%	98.8%				
Fc1cccc(COc2ccc(Nc3ncnc4c3CN(CCN3CCOCC3)CC4)cc2Cl)c1 [Compound 6]	0%	0%	99.9%	0%	0%		0%	0%	0%	0%	0%	0%	0%	> 99%			
COc1cc(Nc2nccc(-c3sc(N)nc3-c3cccc(NC(=O)c4c(F)cccc4F)c3)n2)cc(OC)c1OC [Compound 7]	100%	99.2%	100%	76.3%	0%		0%	0%	100%	97.4%	0%	100%	100%				
C[C@@H](Oc1cc(-c2cnc3ccccn23)sc1C(N)=O)c1ccccc1Cl [Compound 8]	0%	70%	0%	0%	99.4%		0%	0%	0%	0%	70.2%	0%	0%				
c1ccc(COc2cccc(-c3ccnc4[nH]ccc34)c2)cc1 [Compound 9]	0%	0%	0%	0%	94.9%		0%	0%	0%	0%	0%	0%	0%		≥ 90%		
Clc1ccc(Nc2ncc(-c3ccccc3)s2)cc1 [Compound 10]	0%	0%	0%	0%	0%		0%	0%	0%	0%	0%	0%	0%			relatively weak inhibition	
Nc1ncc2c(-c3ccncc3)c[nH]c2n1 [Compound 11]	0%	0%	0%	99.9%	0%		0%	0%	0%	0%	0%	0%	91.7%				≥ 99%
